We go through one compound from patent US8993635B2, “Method of increasing or maintaining the reproductive performance of sows” (Pork CRC Ltd, priority 2010, dated 2015).

Marks after values point to notes of the source that are not given here.

The test system of assay [1] is large white first parity sows. Nature of the assay: Supplementary ractopamine in the lactation diet: sow weight loss and subsequent reproductive performance (Example 1). The format is in vivo, pig. An excerpt: Sixty large white first parity sows were allocated to one of two treatment groups (n=30 sows/treatment). One group (CONT) received a standard lactation diet (0.71 g available lysine/MJ digestible energy (DE)) throughout lactation, whilst the other group (RAC) received the standard lactation diet supplemented with ractopamine at 10 ppm from d 1-13 of lactation and 20 ppm from d 14 of lactation until mating. The amount of feed offered each day was stepped up gradually, reaching 5 kg/day by d 4 of lactation, and maintained at this level for the rest of lactation. Sows were weighed and P2 backfat measured on d 1, 14 and 20 of lactation, the litter size standardised to 9 piglets within 24 hours of lactation. Sows were weaned on d 21 of lactation, with boar exposure commencing 4 d after weaning and sows artificially inseminated twice at their first oestrus post-weaning. Subsequent reproductive performance of all sows was recorded: weaning-to-oestrus interval (WOI) and second litter size. Sows failing to epress eostrus within 10 d of weaning were deemed to be anoestrus and allocated a nominal weaning-to-oestrus interval of 15 d. A general analysis of variance model was used to study the effects of RAC supplementation on sow weight loss during lactation and subsequent reproductive performance.

Assay [2] relates to Large White/Landrace parity 1 sows. Nature of the assay: Paylean (ractopamine) treatment during first lactation: maternal catabolism, post-weaning fertility, piglet growth, milk composition (Example 2). The format is in vivo, pig. Particulars: for MMD loss in lactation (mm): maximum eye muscle depth; for Live weight loss in lactation (kg) Days 1-7 / Live weight loss in lactation (kg) Days 8-14 / Live weight loss in lactation (kg) Days 15-20: parity 1 sows, ractopamine 10 ppm days 1-13, 20 ppm from day 14 until mating; for 2nd litter size: Born alive / 2nd litter size: Total born: second litter; for Proportion sows exhibiting oestrus: within 10 days of weaning. How it is done: This experiment was conducted at the University of Adelaide's Pig and Poultry Production Institute (PPPI) at Roseworthy, South Australia, with approval from the animal ethics committees of Primary Industries and Resources South Australia and The University of Adelaide. The experiment used sixty Large White/Landrace parity 1 sows, and was conducted in four replicates: replicates one and two were run in October and November 2006, respectively (spring); and replicates three and four were run in March and April 2007, respectively (autumn).
At entry into the farrowing shed, Sixty Large White/Landrace first parity sows were weighed, and P2 backfat and maximum eye muscle depth (MMD) measured. Sows were then stratified according to both liveweight and body composition and allocated to one of two treatment groups (n=30 sows). One group (Control) received a standard lactation diet (0.71 g avail. lys/MJ DE) throughout lactation, whilst the other group (Ractopamine) received the same standard lactation diet but supplemented with ractopamine at 10 parts per million (ppm) from days 1-13 of lactation and 20 ppm from day 14 of lactation until mating. Dietary treatments commenced on day 1 of lactation (Day 0=first 24 hours after farrowing). During lactation, the amount of feed offered each day was stepped up gradually, reaching 6 kg/day by day 7 of lactation, and was fed over three meals per day, with daily feed disappearance recorded for each sow. Weaning took place 21 days after farrowing, and between weaning and first Al sows received 3 kg/day of their respective diets. Sows were weighed, and P2 backfat and MMD measured on days 1, 7, 14 and 20 of lactation. Gilts were weighed prior to being fed, and P2 backfat and MMD were measured over the last rib 65 mm down from the vertebrae by an experienced commercial operator using a 3.5 MHz linear probe (Ausonics Impact). Litter size was standardised to 9 piglets within 24 hours of farrowing, with piglets receiving only maternal milk as their feed source and weighed on days 1, 7, 13 and 20 of their mother's lactation. Maternal milk samples were collected on days 3, 13 and 20 of lactation and analysed for fat and protein content.
After weaning, sows were housed in groups of three or four. Boar exposure commenced on the fourth day after weaning, consisted of 15 minutes of full, physical boar contact and was conducted in a detection mating area (DMA). At their first oestrus after weaning, sows two artificial inseminations (AIs), 24 hours apart.
All Als took place in the DMA, with fence-line contact with a boar during the procedure. Inseminations were performed as per standard industry practice using disposable spirette catheters, with each insemination consisting of an 80 ml dose of fresh, extended semen (3×10^9 spermatozoa per inseminate; <4 days old). Semen used for this experiment was purchased from a commercial artificial insemination collection centre (SABOR Pty. Ltd, Clare, South Australia). Sows not detected in oestrus by 10 days after weaning were described as anoestrous.

Regarding `CC(CCc1ccc(O)cc1)NCC(O)c1ccc(O)cc1` (racemic) [Ractopamine, ractopamine], the “weaning-to-oestrus interval (WOI)” value in assay [1] (anoestrus sows allocated nominal 15 d) stood at 6.4 ± 0.63 days. For the same compound, the “Lactation weight loss (kg) Days 1-14” value in assay [1] (first parity sows, ractopamine 10 ppm d 1-13, 20 ppm from d 14) was found to be 4.6 ± 1.41 kg. In addition, in assay [1] (subsequent (second) litter), the “Piglets born at second litter, Total born” value turned out to be 9.7 ± 0.54. For the same compound, the “proportion of sows exhibiting oestrus within 10 d of weaning” value in assay [1] (within 10 d of weaning) was 0.95±0.08. Further, in assay [2] (after two AIs at first oestrus post-weaning), the “Proportion mated sows pregnant” value worked out at 0.91. Further, in assay [2], the “P2 backfat loss in lactation (mm)” value is reported as “lost significantly less”, the “MMD loss in lactation (mm)” value is recorded as “similar”, the “Live weight loss in lactation (kg) Days 1-7” value is given as “similar” and the “Live weight loss in lactation (kg) Days 8-14” value was “similar”. In assay [2], the “Live weight loss in lactation (kg) Days 15-20” value is on record as “lost significantly less”; the “2nd litter size: Born alive” value was “tendency (P=0.064) for the number of piglets born alive-at the second litter to be higher”; the “2nd litter size: Total born” value is recorded as “numerical, but not significant, increase”; the “Proportion sows exhibiting oestrus” value is given as “numerical, but not significant, reduction in the proportion of Control compared to Ractopamine sows”. Further, in assay [2] (listed as Ractoparnine), the “P2 backfat loss in lactation (mm)” value is recorded as 2.44^b mm, the “MMD loss in lactation (mm)” value came out at 2.1 mm, the “Live weight loss in lactation (kg) Days 1-7” value worked out at 2.43 kg and the “Live weight loss in lactation (kg) Days 8-14” value was found to be 2.98 kg. Moreover, in assay [2] (listed as Ractoparnine), the “Live weight loss in lactation (kg) Days 15-20” value is given as 0.66^b kg, the “2nd litter size: Born alive” value is 9.48**, the “2nd litter size: Total born” value worked out at 9.66 and the “Proportion sows exhibiting oestrus” value is listed as 0.95. For the same compound, in assay [2] (sows not in oestrus within 10 days assigned nominal 15 days), the “Weaning-to-oestrus (d)” value is “similar”. In assay [2] (sows not in oestrus within 10 days assigned nominal 15 days, listed as Ractoparnine), the “Weaning-to-oestrus” value was 6.39 days.
